From patent publication US9896443B2, “Perforin inhibiting benzenesulfonamide compounds, preparation and uses thereof” (Peter MacCallum Cancer Institute, priority 2012, dated 2018) come the findings set out here.

The target of one data set is recombinant perforin (UniProt P10820). The class given is cell-based. In outline:
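Jurkat T lymphoma cells labelled with 51Cr for 1 h, washed, then exposed to recombinant perforin with compound in RPMI plus 0.1% BSA. Lysis measured as 51Cr release. IC50 from a concentration range run in triplicate.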

Data set [1] has as its system KHYG-1 NK cell-mediated lysis of K562 cells. The data set is described as follows: Inhibition of KHYG-1 NK cell-mediated lysis of K562 cells (51Cr release). The class given is cell-based. Particulars: K562 target cells, Effector:Target 2:1, 4 hours at 37° C. The method, boiled down: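 KHYG-1 effector cells pretreated with compound (up to 20 µM) for 20 min at RT. 51Cr-labelled K562 targets were then added at effector:target 2:1 and incubated 4 h at 37 °C. 51Cr release was gamma-counted and expressed as % specific cytotoxicity.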

Setting [2] is: read-out: Jurkat IC50; lysis of Jurkat T lymphoma cells by recombinant perforin, 0.1% BSA, 30 min pre-incubation, 4 hours at 37° C.
The mark [3] stands for this setting: lysis of Jurkat T lymphoma cells by recombinant perforin, 0.1% BSA, 30 min pre-incubation, 4 hours at 37° C.; read-out: Jurkat IC50.

SMILES strings stand for the structures. pIC50: −log10 of the molar value. Where two headings read alike, the source gives them in different places.

recombinant perforin, sequence (P10820 whole entry): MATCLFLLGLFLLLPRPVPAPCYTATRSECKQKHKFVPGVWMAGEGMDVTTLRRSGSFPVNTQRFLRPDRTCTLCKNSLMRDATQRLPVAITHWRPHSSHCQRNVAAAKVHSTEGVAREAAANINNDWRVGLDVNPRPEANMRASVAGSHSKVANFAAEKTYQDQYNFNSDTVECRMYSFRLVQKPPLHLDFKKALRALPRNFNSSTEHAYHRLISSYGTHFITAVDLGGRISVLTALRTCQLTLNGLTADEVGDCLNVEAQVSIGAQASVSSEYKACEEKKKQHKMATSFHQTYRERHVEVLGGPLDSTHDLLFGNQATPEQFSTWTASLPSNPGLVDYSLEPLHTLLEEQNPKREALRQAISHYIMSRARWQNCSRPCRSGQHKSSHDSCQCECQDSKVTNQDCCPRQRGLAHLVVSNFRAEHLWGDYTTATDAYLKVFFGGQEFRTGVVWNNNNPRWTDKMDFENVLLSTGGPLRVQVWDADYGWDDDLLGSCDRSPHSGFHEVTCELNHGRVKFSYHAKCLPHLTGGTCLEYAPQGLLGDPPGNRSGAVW

As to `Cc1cccc(S(=O)(=O)Nc2cncc(-c3ccc(-c4ccc5c(c4)CN(C)C5=O)s3)c2)c1` [Compound 2, 3-Methyl-N-(5-(5-(2-methyl-1-oxoisoindolin-5-yl)thiophen-2-yl)pyridin-3-yl)benzenesulfonamide], the melting point (in general, the temperature, or range, at which the solid turns liquid) lay within 281 to 284 °C. For the same molecule, the pIC50 (usually the negative decadic logarithm of the IC50, by convention in mol/L) on recombinant perforin (setting [2]) was 5.13. In data set [1] (4 h), 20 µM produced 27% inhibition.
In the case of `CN1Cc2cc(-c3ccc(-c4cncc(NS(=O)(=O)c5ccccc5F)c4)s3)ccc2C1=O` [Compound 4, 2-Fluoro-N-(5-(5-(2-methyl-1-oxoisoindolin-5-yl)thiophen-2-yl)pyridin-3-yl)benzene-sulfonamide], the melting point lay within 289 to 292 °C. Further, the pIC50 at recombinant perforin (setting [3]) was 5.69. Further, testing at 20 µM in data set [1] (4 h) gave an inhibition of 40%.
The matching figures for `CN1Cc2cc(-c3ccc(-c4cncc(NS(=O)(=O)c5ccccc5Cl)c4)s3)ccc2C1=O` [Compound 9, 2-Chloro-N-(5-(5-(2-methyl-1-oxoisoindolin-5-yl)thiophen-2-yl)pyridin-3-yl)benzenesulfonamide]: 299 to 303 °C, 5.40 and 47%.
Turning to `CN1Cc2cc(-c3ccc(-c4cncc(NS(=O)(=O)c5cccc(Cl)c5)c4)s3)ccc2C1=O` [Compound 10, 3-Chloro-N-(5-(5-(2-methyl-1-oxoisoindolin-5-yl)thiophen-2-yl)pyridin-3-yl)benzenesulfonamide], the melting point lay within 291 to 295 °C. The pIC50 at recombinant perforin (setting [3]) is 5.62. Moreover, in data set [1] (4 h), the inhibition (in general, the relative decrease from the control value, in per cent) at 20 µM stood at 31%.
The matching figures for `CN1Cc2cc(-c3ccc(-c4cncc(NS(=O)(=O)c5ccc(Cl)c(Cl)c5)c4)s3)ccc2C1=O` [Compound 12, 3,4-Dichloro-N-(5-(5-(2-methyl-1-oxoisoindolin-5-yl)thiophen-2-yl)pyridin-3-yl)benzenesulfonamide]: 256 to 259 °C, 5.88 and 45%.
`CN1Cc2cc(-c3ccc(-c4cncc(NS(=O)(=O)c5ccccc5Br)c4)s3)ccc2C1=O` [Compound 15, 2-Bromo-N-(5-(5-(2-methyl-1-oxoisoindolin-5-yl)thiophen-2-yl)pyridin-3-yl)benzenesulfonamide] registered a melting point of 289 to 293 °C. Further, the negative-log IC50 (pIC50) at recombinant perforin (setting [3]) is 5.58. The same molecule registered an inhibition at 20 µM in data set [1] (4 h) of 42%.
For `CN1Cc2cc(-c3ccc(-c4cncc(NS(=O)(=O)c5cccc(Br)c5)c4)s3)ccc2C1=O` [Compound 16, 3-Bromo-N-(5-(5-(2-methyl-1-oxoisoindolin-5-yl)thiophen-2-yl)pyridin-3-yl)benzenesulfonamide], the melting point is 303 to 307 °C. For the same molecule, the pIC50 at recombinant perforin (setting [3]) was 5.68. In data set [1] (4 h), this molecule came in with an inhibition at 20 µM of 20%.
Molecule `CN1Cc2cc(-c3ccc(-c4cncc(NS(=O)(=O)c5ccc(Br)cc5)c4)s3)ccc2C1=O` [Compound 17, 4-Bromo-N-(5-(5-(2-methyl-1-oxoisoindolin-5-yl)thiophen-2-yl)pyridin-3-yl)benzenesulfonamide] returned a melting point of 276 to 279 °C. Moreover, the pIC50 at recombinant perforin (setting [3]) was 5.06. In data set [1] (4 h), at 20 µM the inhibition was 6%.
The matching figures for `COc1cccc(S(=O)(=O)Nc2cncc(-c3ccc(-c4ccc5c(c4)CN(C)C5=O)s3)c2)c1` [Compound 19, 3-Methoxy-N-(5-(5-(2-methyl-1-oxoisoindolin-5-yl)thiophen-2-yl)pyridin-3-yl)benzenesulfonamide]: 278 to 280 °C, 5.59 and 17%.
In turn, `COc1ccc(S(=O)(=O)Nc2cncc(-c3ccc(-c4ccc5c(c4)CN(C)C5=O)s3)c2)cc1` [Compound 20, 4-Methoxy-N-(5-(5-(2-methyl-1-oxoisoindolin-5-yl)thiophen-2-yl)pyridin-3-yl)benzenesulfonamide] returned a melting point of 254 to 258 °C. Further, the pIC50 at recombinant perforin (setting [3]) was 5.20. This molecule also registered an inhibition at 20 µM in data set [1] (4 h) of 24%.
In turn, `CN1Cc2cc(-c3ccc(-c4cncc(NS(=O)(=O)c5cccc(OC(F)(F)F)c5)c4)s3)ccc2C1=O` [Compound 23, N-(5-(5-(2-Methyl-1-oxoisoindolin-5-yl)thiophen-2-yl)pyridin-3-yl)-3-(trifluoromethoxy)benzenesulfonamide] registered a melting point of 230 to 232 °C. In addition, at recombinant perforin (setting [3]), the pIC50 is 5.85. This molecule also came in with an inhibition at 20 µM in data set [1] (4 h) of 38%.
`Cc1ccc(S(=O)(=O)Nc2cncc(-c3ccc(-c4ccc5c(c4)CN(C)C5=O)s3)c2)cc1Cl` [Compound 27, 3-Chloro-4-methyl-N-(5-(5-(2-methyl-1-oxoisoindolin-5-yl)thiophen-2-yl)pyridin-3-yl)benzenesulfonamide] showed a melting point of 277 to 279 °C. Testing at 20 µM in data set [1] (4 h) gave an inhibition of 52%.
On to `CN1Cc2cc(-c3ccc(-c4cncc(NS(=O)(=O)c5ccccn5)c4)s3)ccc2C1=O` [Compound 31, N-(5-(5-(2-Methyl-1-oxoisoindolin-5-yl)thiophen-2-yl)pyridin-3-yl)pyridine-2-sulfonamide], for which the melting point is 272 to 275 °C. Further, the pIC50 at recombinant perforin (setting [3]) was 6.13. The inhibition at 20 µM in data set [1] (4 h) turned out to be 19%.
In turn, `CN1Cc2cc(-c3ccc(-c4cncc(NS(=O)(=O)c5cccs5)c4)s3)ccc2C1=O` [Compound 34, N-(5-(5-(2-Methyl-1-oxoisoindolin-5-yl)thiophen-2-yl)pyridin-3-yl)thiophene-2-sulfonamide] came in with a melting point of 300 to 304 °C. For the same molecule, the pIC50 on recombinant perforin (setting [3]) was 5.97. For the same molecule, the inhibition at 20 µM in data set [1] (4 h) was determined as 45%.
In the case of `COc1ncc(-c2ccc(-c3ccc4c(c3)CN(C)C4=O)s2)cc1NS(=O)(=O)c1ccc(F)cc1F` [Compound 37, 2,4-Difluoro-N-(2-methoxy-5-(5-(2-methyl-1-oxoisoindolin-5-yl)thiophen-2-yl)pyridin-3-yl)benzenesulphonamide], the melting point was in the range of 224 to 227 °C. Besides, the pIC50 on recombinant perforin (setting [3]) was 5.45. The inhibition at 20 µM in data set [1] (4 h) came to 36%.
The molecule `CN1Cc2cc(-c3ccc(-c4ccnc(NS(=O)(=O)c5ccc(F)cc5F)c4)s3)ccc2C1=O` [Compound 41, 2,4-Difluoro-N-(4-(5-(2-methyl-1-oxoisoindolin-5-yl)thiophen-2-yl)pyridin-2-yl)benzenesulfonamide] displayed a melting point of 235 to 239 °C. The pIC50 on recombinant perforin (setting [3]) was 5.33. The molecule also returned an inhibition at 20 µM in data set [1] (4 h) of 14%.
Molecule `CN1Cc2cc(-c3ccc(-c4cccc(NS(=O)(=O)c5ccc(F)cc5F)c4)s3)ccc2C1=O` [Compound 43, 2,4-Difluoro-N-(3-(5-(2-methyl-1-oxoisoindolin-5-yl)thiophen-2-yl)phenyl)benzene sulphonamide] displayed a melting point of 260 to 262 °C. Moreover, the pIC50 at recombinant perforin (setting [3]) was 5.24. Also, the inhibition at 20 µM in data set [1] (4 h) turned out to be 18%.
Molecule `CN1Cc2cc(-c3ccc(-c4cncc(S(=O)(=O)Nc5ccc(F)cc5F)c4)s3)ccc2C1=O` [Compound 44, N-(2,4-Difluorophenyl)-5-(5-(2-methyl-1-oxoisoindolin-5-yl)thiophen-2-yl)pyridine-3-sulphonamide] yielded a melting point of 221 to 224 °C. At recombinant perforin (setting [3]), the pIC50 was 5.65. This molecule came in with an inhibition at 20 µM in data set [1] (4 h) of 57%.
As to `CN1Cc2cc(-c3ccc(-c4cnc(N)c(S(=O)(=O)Nc5ccc(F)cc5F)c4)s3)ccc2C1=O` [Compound 45, 2-Amino-N-(2,4-difluorophenyl)-5-(5-(2-methyl-1-oxoisoindolin-5-yl)thiophen-2-yl)pyridine-3-sulphonamide], the melting point was 278 to 279 °C. Besides, the pIC50 at recombinant perforin (setting [2]) is 5.33. The molecule also gave an inhibition at 20 µM in data set [1] (4 h) of 14%.
As for `CN1Cc2cc(-c3ccc(-c4cncc(N(C)S(=O)(=O)c5ccc(F)cc5F)c4)s3)ccc2C1=O` [Compound 46, 2,4-Difluoro-N-methyl-N-(5-(5-(2-methyl-1-oxoisoindolin-5-yl)thiophen-2-yl)pyridin-3-yl)benzenesulphonamide], the melting point lay within 200 to 202 °C. In addition, at recombinant perforin (setting [3]), the pIC50 is 5.04. The molecule further displayed an inhibition at 20 µM in data set [1] (4 h) of 28%.
`CN1Cc2ccc(-c3ccc(-c4cncc(NS(=O)(=O)c5ccc(F)cc5F)c4)s3)cc2C1=O` [Compound 50, 2,4-Difluoro-N-(5-(5-(2-methyl-3-oxoisoindolin-5-yl)thiophen-2-yl)pyridin-3-yl)benzenesulfonamide]: the melting point lay in the range of 292 to 295 °C. For the same molecule, the pIC50 on recombinant perforin (setting [2]) was 4.98. Moreover, 20 µM produced 27% inhibition in data set [1] (4 h).
Molecule `CN1CCc2ccc(-c3ccc(-c4cncc(NS(=O)(=O)c5ccc(F)cc5F)c4)s3)cc2C1=O` [Compound 55, 2,4-Difluoro-N-(5-(5-(2-methyl-1-oxo-1,2,3,4-tetrahydroisoquinolin-7-yl)thiophen-2-yl)pyridin-3-yl)benzenesulfonamide] gave a melting point of 280 to 283 °C. Also, the inhibition at 20 µM in data set [1] (4 h) is 0%.
As to `O=C1c2ccc(-c3ccc(-c4cncc(NS(=O)(=O)c5ccc(F)cc5F)c4)s3)cc2CN1CCO` [Compound 56, 2,4-Difluoro-N-(5-(5-(2-(2-hydroxyethyl)-1-oxoisoindolin-5-yl)thiophen-2-yl)pyridin-3-yl)benzenesulfonamide], the melting point is 211 to 216 °C. Also, the pIC50 on recombinant perforin (setting [2]) is 5.88. This molecule showed an inhibition at 20 µM in data set [1] (4 h) of 32%.
As to `CCCCn1cc(C(C)=O)c2cc(-c3ccc(-c4cncc(NS(=O)(=O)c5ccc(F)cc5F)c4)s3)ccc21` [Compound 58, N-(5-(5-(3-Acetyl-1-butyl-1H-indol-5-yl)thiophen-2-yl)pyridin-3-yl)-2,4-difluorobenzenesulfonamide], the melting point was 188 to 191 °C. Besides, the pIC50 at recombinant perforin (setting [3]) is 5.26. The molecule also registered an inhibition at 20 µM in data set [1] of 64%.
